{"source": "ChEMBL document CHEMBL5614418", "about": "“Discovery of novel dihydropyrrolidone-thiadiazole compound crosstalk between the YycG/F two-component regulatory pathway and cell membrane homeostasis to combat methicillin-resistant Staphylococcus aureus” (Eur J Med Chem, 2024)", "key": {"Staphylococcus aureus [1]": {"system": "Staphylococcus aureus", "test": "Synergistic antibacterial activity against methicillin resistant Staphylococcus aureus USA300 assessed as fractional inhibitory concentration index in presence of daptomycin", "format": "functional"}, "[2]": {"test": "Binding affinity to biotin-labeled cardiolipin (unknown origin) by biolayer interferometry"}, "[3]": {"system": "Staphylococcus epidermidis", "test": "Bactericidal activity against Staphylococcus epidermidis SE1457", "format": "functional"}, "[4]": {"system": "Staphylococcus epidermidis", "test": "Antibacterial activity against Staphylococcus epidermidis SE1457 by broth microdilution method", "format": "functional"}, "Staphylococcus aureus [5]": {"system": "Staphylococcus aureus", "test": "Synergistic bactericidal activity against Staphylococcus aureus USA300 assessed as persister cells killing by measuring log reduction in bacterial count at 8 times MIC measured after 72 hrs in presence of daptomycin", "format": "functional"}, "Staphylococcus aureus [6]": {"system": "Staphylococcus aureus", "test": "Synergistic antibacterial activity against methicillin resistant Staphylococcus aureus USA300 in presence of vancomycin", "format": "functional, organism-based"}, "[7]": {"system": "Staphylococcus epidermidis", "test": "Induction of matured biofilm eradication in Staphylococcus epidermidis SE1457 assessed as reduction in bacterial survival in biofilm at 8 times MIC incubated for 48 hrs by SYTO 9 staining based confocal fluorescence microscopic analysis", "format": "functional"}, "Staphylococcus aureus [8]": {"system": "Staphylococcus aureus", "test": "Antibacterial activity against methicillin resistant Staphylococcus aureus […] infected in BALB/c mouse wound model assessed as log reduction in wound bacterial load at 20 mg/kg, ip administered every 12 hrs for 3 times and measured after 48 hrs in presence of DAP", "format": "functional"}, "Staphylococcus aureus [9]": {"system": "Staphylococcus aureus", "test": "Antibacterial activity against methicillin resistant Staphylococcus aureus YUSA151", "format": "functional"}, "Acinetobacter baumannii": {"system": "Acinetobacter baumannii", "test": "Antibacterial activity against Acinetobacter baumannii", "format": "functional, organism-based"}, "[10]": {"system": "Staphylococcus epidermidis", "test": "Induction of matured biofilm eradication in Staphylococcus epidermidis SE1457 assessed as log reduction in bacterial count in biofilm at 8 times MIC incubated for 48 hrs in presence of daptomycin by agar plate method", "format": "functional"}, "Staphylococcus aureus [11]": {"system": "Staphylococcus aureus", "test": "Induction of matured biofilm eradication in methicillin resistant Staphylococcus aureus YUSA145 assessed as reduction in bacterial survival in biofilm at 8 times MIC incubated for 48 hrs in presence of daptomycin by SYTO 9 staining based confocal fluorescence microscopic analysis", "format": "functional"}, "Enterococcus faecalis [12]": {"system": "Enterococcus faecalis", "test": "Antibacterial activity against Enterococcus faecalis OG1RF by broth microdilution method", "format": "functional"}, "[13]": {"test": "Cytotoxicity against human LX2 cells incubated for 24 hrs by CCK8 assay", "format": "toxicity, cell-based", "settings": "LX-2 cells"}, "Escherichia coli": {"system": "Escherichia coli", "test": "Antibacterial activity against Escherichia coli", "format": "functional, organism-based"}, "[14]": {"test": "Toxicity in BALB/c mouse assessed as apparent tissue damage at 50 mg/kg, ip measured after 1 to 3 days", "format": "organism-based", "settings": "in vivo, time 1-3 day"}, "Staphylococcus aureus [15]": {"system": "Staphylococcus aureus", "test": "Synergistic antibacterial activity against methicillin resistant Staphylococcus aureus USA300 in presence of linezolid", "format": "functional, organism-based"}, "Pseudomonas aeruginosa": {"system": "Pseudomonas aeruginosa", "test": "Antibacterial activity against Pseudomonas aeruginosa", "format": "functional, organism-based"}, "[16]": {"test": "Hemolytic activity against human erythrocytes measured after 1 hr", "format": "toxicity, cell-based, Erythrocyte"}, "[17]": {"system": "Staphylococcus epidermidis", "test": "Inhibition of biofilm formation in Staphylococcus epidermidis SE1457 at 1/2 MIC incubated for 16 hrs by SEM analysis", "format": "functional, organism-based"}, "[18]": {"system": "Staphylococcus epidermidis", "test": "Synergistic antibacterial activity against Staphylococcus epidermidis SE1457 assessed as fractional inhibitory concentration index in presence of daptomycin", "format": "functional"}, "Staphylococcus aureus [19]": {"system": "Staphylococcus aureus", "test": "Antibacterial activity against methicillin resistant Staphylococcus aureus USA300 infected in BALB/c mouse wound model assessed as log reduction in wound bacterial load at 20 mg/kg, ip administered every 12 hrs for 3 times and measured after 48 hrs", "format": "functional"}, "Staphylococcus aureus [20]": {"system": "Staphylococcus aureus", "test": "Downregulation of intracellular ATP level in methicillin sensitive Staphylococcus aureus SA113 at 1 to 4 times MIC incubated for 30 mins", "format": "functional, cell-based"}, "Staphylococcus aureus [21]": {"system": "Staphylococcus aureus", "test": "Induction of resistance development in methicillin sensitive Staphylococcus aureus SA113 assessed as fold increase in MIC at 1/2 MIC incubated for 16 hrs after 20 serial passages", "format": "functional"}, "Staphylococcus aureus [22]": {"system": "Staphylococcus aureus", "test": "Antibacterial activity against methicillin resistant Staphylococcus aureus USA300 infected in BALB/c mouse wound model assessed as log reduction in wound bacterial load at 20 mg/kg, ip administered every 12 hrs for 3 times and measured after 48 hrs in presence of DAP", "format": "functional"}, "[23]": {"system": "Staphylococcus epidermidis", "test": "Synergistic antibacterial activity against Staphylococcus epidermidis SE1457 in presence of vancomycin", "format": "functional, organism-based"}, "[24]": {"test": "Toxicity in BALB/c mouse assessed as change in ALT level at 50 mg/kg, ip measured after 1 to 3 days", "format": "organism-based", "settings": "in vivo, time 1-3 day"}, "Staphylococcus aureus [25]": {"system": "Staphylococcus aureus", "test": "Induction of matured biofilm eradication in methicillin resistant Staphylococcus aureus YUSA145 assessed as reduction in bacterial survival in biofilm at 8 times MIC incubated for 48 hrs by SYTO 9 staining based confocal fluorescence microscopic analysis", "format": "functional"}, "Enterococcus faecalis [26]": {"system": "Enterococcus faecalis", "test": "Bactericidal activity against Enterococcus faecalis OG1RF", "format": "functional"}, "Staphylococcus aureus [27]": {"system": "Staphylococcus aureus", "test": "Inhibition of bacterial growth in methicillin sensitive Staphylococcus aureus SA113 at MIC concentration measured upto 16 hrs", "format": "functional"}, "[28]": {"system": "Staphylococcus epidermidis", "test": "Induction of resistance development in Staphylococcus epidermidis SE1457 assessed as fold increase in MIC at 1/2 MIC incubated for 16 hrs after 20 serial passages", "format": "functional"}, "Staphylococcus aureus [29]": {"system": "Staphylococcus aureus", "test": "Bactericidal activity against Staphylococcus aureus SA113", "format": "functional"}, "[30]": {"test": "Toxicity in BALB/c mouse assessed as change in CREA level at 50 mg/kg, ip measured after 1 to 3 days", "format": "organism-based", "settings": "in vivo, time 1-3 day"}, "Staphylococcus aureus [31]": {"system": "Staphylococcus aureus", "test": "Antibacterial activity against methicillin sensitive Staphylococcus aureus SA113 by broth microdilution method", "format": "functional"}, "[32]": {"system": "Staphylococcus epidermidis", "test": "Bactericidal activity against Staphylococcus epidermidis SE1457 assessed as planktonic cells killing by measuring log reduction in bacterial count at 2 to 8 times MIC measured after 24 hrs", "format": "functional"}, "Staphylococcus aureus [33]": {"system": "Staphylococcus aureus", "test": "Antibacterial activity against methicillin resistant Staphylococcus aureus USA300 infected in BALB/c mouse pneumonia model assessed as increase in mouse survival rate at 20 mg/kg, ip administered every 12 hrs for 3 times and measured after 48 hrs", "format": "functional, organism-based"}, "Staphylococcus aureus [34]": {"system": "Staphylococcus aureus", "test": "Downregulation of arcC1 gene expression level in methicillin sensitive Staphylococcus aureus SA113 at 1/2 MIC by RT-qPCR analysis", "format": "functional"}, "[35]": {"system": "Staphylococcus epidermidis", "test": "Induction of matured biofilm eradication in Staphylococcus epidermidis SE1457 assessed as log reduction in bacterial count in biofilm at 8 times MIC incubated for 48 hrs by agar plate method", "format": "functional"}, "[36]": {"system": "Staphylococcus epidermidis", "test": "Inhibition of bacterial growth in Staphylococcus epidermidis SE1457 at 1/2 MIC concentration measured upto 16 hrs", "format": "functional, organism-based"}, "Staphylococcus aureus [37]": {"system": "Staphylococcus aureus", "test": "Downregulation of arcC2 gene expression level in methicillin sensitive Staphylococcus aureus SA113 at 1/2 MIC by RT-qPCR analysis", "format": "functional"}, "[38]": {"system": "Staphylococcus epidermidis", "test": "Synergistic bactericidal activity against Staphylococcus epidermidis SE1457 assessed as persister cells killing by measuring log reduction in bacterial count at 8 times MIC measured after 72 hrs in presence of daptomycin", "format": "functional"}, "Staphylococcus aureus [39]": {"system": "Staphylococcus aureus", "test": "Antibacterial activity against methicillin sensitive Staphylococcus aureus SA113 assessed as fold increase in MIC in presence of cardiolipin by chequerboard microdilution assay", "format": "functional"}, "Staphylococcus aureus [40]": {"system": "Staphylococcus aureus", "test": "Synergistic bactericidal activity against Staphylococcus aureus USA300 assessed as planktonic cells killing by measuring log reduction in bacterial count at 8 times MIC measured after 24 hrs in presence of daptomycin", "format": "functional"}, "Klebsiella pneumoniae": {"system": "Klebsiella pneumoniae", "test": "Antibacterial activity against Klebsiella pneumoniae", "format": "functional, organism-based"}, "Staphylococcus aureus [41]": {"system": "Staphylococcus aureus", "test": "Downregulation of pflA gene expression level in methicillin sensitive Staphylococcus aureus SA113 at 1/2 MIC by RT-qPCR analysis", "format": "functional"}}, "note": "Calls of active or inactive are those of the source. No cut-off for these calls is given here."}
{"molecule": "O=C(C1=C(O)C(=O)N(c2nnc(SCc3ccccc3Cl)s2)C1c1ccccc1O)c1cc2ccccc2o1", "note": "(stereo not drawn)", "values": [{"measurement": "fractional inhibitory concentration index (FICI)", "setting": "Staphylococcus aureus [1]", "result": "<=0.5"}, {"measurement": "Kd", "setting": "[2]", "result": 44.1, "unit": "µM"}, {"measurement": "MBC", "setting": "[3]", "result": 25, "unit": "µM"}, {"measurement": "MIC50", "setting": "[4]", "result": "≥ 50", "unit": "µM"}, {"measurement": "MIC90", "setting": "[4]", "result": "≥ 50", "unit": "µM"}, {"measurement": "log(activity)", "setting": "Staphylococcus aureus [5]", "result": 3}, {"measurement": "Activity", "setting": "Staphylococcus aureus [6]", "result": "inactive"}, {"measurement": "Activity", "setting": "[7]", "result": "<50", "unit": "%"}, {"measurement": "log(activity)", "setting": "Staphylococcus aureus [8]", "result": 3.5}, {"measurement": "MIC", "setting": "Staphylococcus aureus [9]", "result": 12.5, "unit": "µM"}, {"measurement": "Activity", "setting": "Acinetobacter baumannii", "result": "Active"}, {"measurement": "log(activity)", "setting": "[10]", "result": 3}, {"measurement": "Activity", "setting": "Staphylococcus aureus [11]", "result": ">70", "unit": "%"}, {"measurement": "MIC50", "setting": "Enterococcus faecalis [12]", "result": "≥ 50", "unit": "µM"}, {"measurement": "MIC90", "setting": "Enterococcus faecalis [12]", "result": "≥ 50", "unit": "µM"}, {"measurement": "CC50 at 24 h", "setting": "[13]", "result": "> 100", "unit": "µM"}, {"measurement": "Activity", "setting": "Escherichia coli", "result": "Active"}, {"measurement": "Activity", "setting": "[14]", "result": "Non-Toxic"}, {"measurement": "Activity", "setting": "Staphylococcus aureus [15]", "result": "inactive"}, {"measurement": "Activity", "setting": "Pseudomonas aeruginosa", "result": "Active"}, {"measurement": "HC50 at 1 h", "setting": "[16]", "result": "> 200", "unit": "µM"}, {"measurement": "inhibition", "setting": "[17]", "result": "Active"}, {"measurement": "fractional inhibitory concentration index (FICI)", "setting": "[18]", "result": "<=0.5"}, {"measurement": "log(activity)", "setting": "Staphylococcus aureus [19]", "result": 1}, {"measurement": "Activity", "setting": "Staphylococcus aureus [20]", "result": "Active"}, {"measurement": "Activity", "setting": "Staphylococcus aureus [21]", "result": "inactive"}, {"measurement": "log(activity)", "setting": "Staphylococcus aureus [22]", "result": 3.5}, {"measurement": "Activity", "setting": "[23]", "result": "inactive"}, {"measurement": "Activity", "setting": "[24]", "result": "Non-Toxic"}, {"measurement": "Activity", "setting": "Staphylococcus aureus [25]", "result": "<50", "unit": "%"}, {"measurement": "MBC", "setting": "Enterococcus faecalis [26]", "result": 100, "unit": "µM"}, {"measurement": "inhibition (INH)", "setting": "Staphylococcus aureus [27]", "result": 100, "unit": "%"}, {"measurement": "Activity", "setting": "[28]", "result": "inactive"}, {"measurement": "MBC", "setting": "Staphylococcus aureus [29]", "result": 25, "unit": "µM"}, {"measurement": "Activity", "setting": "[30]", "result": "Non-Toxic"}, {"measurement": "MIC50", "setting": "Staphylococcus aureus [31]", "result": "≥ 50", "unit": "µM"}, {"measurement": "MIC90", "setting": "Staphylococcus aureus [31]", "result": "≥ 50", "unit": "µM"}, {"measurement": "log(activity)", "setting": "[32]", "result": 2.7}, {"measurement": "Activity", "setting": "Staphylococcus aureus [33]", "result": "Active"}, {"measurement": "Activity", "setting": "Staphylococcus aureus [34]", "result": "Active"}, {"measurement": "log(activity)", "setting": "[35]", "result": 1}, {"measurement": "growth inhibition (GI)", "setting": "[36]", "result": "Active"}, {"measurement": "Activity", "setting": "Staphylococcus aureus [37]", "result": "Active"}, {"measurement": "log(activity)", "setting": "[38]", "result": 3}, {"measurement": "fold change (FC)", "setting": "Staphylococcus aureus [39]", "result": 16}, {"measurement": "log(activity)", "setting": "Staphylococcus aureus [40]", "result": 4.5}, {"measurement": "Activity", "setting": "Klebsiella pneumoniae", "result": "Active"}, {"measurement": "Activity", "setting": "Staphylococcus aureus [41]", "result": "Active"}]}
